In ChEMBL document CHEMBL1799909, “Lithothamnin A, the first bastadin-like metabolite from the red alga Lithothamnion fragilissimum” (J Nat Prod, 2011):
pIC50: −log10 of the molar value.

How the values were obtained:
Format in all cases: functional, cell-based
SNB-19 = experiment: Cytotoxicity against human SNB19 cells after 2 days by XTT assay; settings: SNB-19, 48 h
OVCAR-3 = experiment: Cytotoxicity against human OVCAR3 cells after 2 days by XTT assay; settings: OVCAR-3, 48 h
MOLT-4 = experiment: Cytotoxicity against human MOLT4 cells after 2 days by XTT assay; settings: MOLT-4, 48 h
[1] = Cytotoxicity against human LOX cells after 2 days by XTT assay; settings: 48 h
COLO 205 = experiment: Cytotoxicity against human COLO205 cells after 2 days by XTT assay; settings: COLO 205, 48 h

O=C1NCCc2cc(Br)c(O)c(c2)Oc2cc(O)c(cc2Br)CCNC(=O)/C(=N/O)Cc2c(O)cc(Br)c(c2Br)Oc2cc(cc(Br)c2O)C/C1=N\O [LITHOTHAMNIN A]
pIC50 (SNB-19): 5.12 | pIC50 (OVCAR-3): 5.12 | pIC50 (MOLT-4): 4.72 | pIC50 [1]: 5.02 | pIC50 (COLO 205): 4.72
